The values below come from patent US6403625B1, “Fluorescent labeling reagents” (Daiichi Pure Chemicals Co., Ltd., priority 1998, dated 2002).

SMILES strings stand for the structures.

The nature of data set [1]: UV-vis absorption spectrum. It is filed as physicochemical. Conditions: Table 2. On the procedure:
All the melting points were measured with a Yanagimoto-Micro apparatus and were not corrected. Nuclear magnetic resonance (^1H-NMR) spectrum of a protein was recorded by using a spectrometer, JEOL-FX-200 or JEOL-GSX-400. Chemical shifts were indicated as δ values (ppm) using tetramethylsilane as the internal standard. The fast atom bombardment mass spectrometric analysis (FAB) or the electron ionization mass spectrometric analysis (El) was performed by using a JEOL-SX-102A apparatus. […] The UV-vis spectrum was measured by using a Beckmann's 650-40 spectrometer. The fluorescence spectrum was recorded with a Hitachi's 650-40 luminescence spectrometer. […]
A DMF solution (250 μl ) of compound (6) of the present invention obtained in Example 1 (3.7 μmol/ml) was added to a 0.1 M phosphate buffer solution (pH 7.5, 1 ml) of BSA (2 mg). […] Then, the aqueous layer containing the labeled protein and the ethyl acetate layer were subjected to UV-vis and fluorescence analyses.
As a result, the ratios of the fluorescent substance in the aqueous layer and the ethyl acetate layer were 44% in BSA and 69% in IgG. The protein concentration in the labeled protein was measured by using a protein assay kit (Bio-Rad, CA), and the total ICG concentration in the labeled protein was determined from the absorbance (789 nm) of the DMF solution and the ε value of the ICD derivative. […]

A short description of data set [2]: Fluorescence spectrum (excitation/emission). The class given is physicochemical. On the procedure: All the melting points were measured with a Yanagimoto-Micro apparatus and were not corrected. Nuclear magnetic resonance (^1H-NMR) spectrum of a protein was recorded by using a spectrometer, JEOL-FX-200 or JEOL-GSX-400. Chemical shifts were indicated as δ values (ppm) using tetramethylsilane as the internal standard. The fast atom bombardment mass spectrometric analysis (FAB) or the electron ionization mass spectrometric analysis (El) was performed by using a JEOL-SX-102A apparatus. […] The UV-vis spectrum was measured by using a Beckmann's 650-40 spectrometer. The fluorescence spectrum was recorded with a Hitachi's 650-40 luminescence spectrometer. The column chromatography was performed by using Merck's Silica Gel 60 (70-230 mesh). The compound numbers in Examples correspond to those in the aforementioned scheme.
A DMF solution (250 μl ) of compound (6) of the present invention obtained in Example 1 (3.7 μmol/ml) was added to a 0.1 M phosphate buffer solution (pH 7.5, 1 ml) of BSA (2 mg). The reaction mixture was allowed to stand for 30 minutes and subjected to Sephadex LH-20 column chromatography (1.5 cm×50 cm), and then eluted with a 0.1 M phosphate buffer solution (pH 7.5) to obtain a fraction of ICG-labeled protein. For IgG (2 mg), the labeling reaction with a DMF solution (250 μl) of ICG-ATT (6) (3.7 μmol/ml) was carried out in a similar manner to the above by using 0.1 M carbonate buffer (pH 9.5) instead of 0.1 M phosphate buffer (pH 7.5). The 0.1 M phosphate or the carbonate buffer solution (1 ml), containing the ICG-labeled protein (BSA or IgG) obtained by the Sephadex LH-20 column chromatography, was added to ethyl acetate (1 ml), and the mixture was vigorously stirred for 30 minutes to remove fluorescent compounds which bound to the protein through noncovalent bond. Then, the aqueous layer containing the labeled protein and the ethyl acetate layer were subjected to UV-vis and fluorescence analyses.
As a result, the ratios of the fluorescent substance in the aqueous layer and the ethyl acetate layer were 44% in BSA and 69% in IgG. The protein concentration in the labeled protein was measured by using a protein assay kit (Bio-Rad, CA), and the total ICG concentration in the labeled protein was determined from the absorbance (789 nm) of the DMF solution and the ε value of the ICD derivative. The ratios of ICG versus protein (ICG/protein) in each ICG-labeled protein were 21.5 (BSA) and 23.6 (IgG). […] From the foregoing results, it is readily understood that the compounds of the present invention are useful as near infrared fluorescent labeling agents for proteins and oligopeptides.

Consider `CCN1C(=CC=CC=CC=CC2=[N+](CCCCCC(=O)N3CCSC3=S)c3ccc4ccccc4c3C2(C)C)C(C)(C)c2c1ccc1ccccc21.[Cl-]` [ICG-ATT (6), 2-[7-(1,3-Dihydro-1,1-dimethyl-3-ethylbenz[e]indolin-2-ylidene)-1,3,5-heptatrienyl]-1,1-dimethyl-3-[[6-[(1,3-thiazolidine-2-thion)-1-yl]-6-oxo]hexyl]-1H-benz[e]indolium Chloride], for which, in data set [1], the “UV-vis abs (λmax)” value is listed as 789 nm. Moreover, in data set [2] (DMF), the λ em was 830 nm and the λ ex came out at 765 nm. Moreover, in data set [2] (Table 2), the “fluorescent λem” value is on record as 830 nm and the “fluorescent λex” value is reported as 765 nm.
